Assay results as given in patent US6630507B1, “Cannabinoids as antioxidants and neuroprotectants” (The United States of America as represented by the …, priority 1998, dated 2003).

How the values were obtained:
[1] = Cyclic voltametry (oxidation potentials); format: physicochemical; conditions: for oxidation (electron donation) potential by cyclic voltametry: scan +0 to 1.8 V, 100 mV per second, acetonitrile; for oxidation profile by cyclic voltametry: data not shown
Procedure: To investigate whether cannabinoids protect neurons against glutamate damage by reacting with ROS, the antioxidant properties of cannabidiol and other cannabinoids were assessed. Cyclic voltametry, a procedure that measures the ability of a compound to accept or donate electrons under a variable voltage potential, was used to measure the oxidation potentials of several natural and synthetic cannabinoids. These studies were performed with an EG&G Princeton Applied Research potentiostat/galvanostat (Model 273/PAR 270 software, NJ). The working electrode was a glassy carbon disk with a platinum counter electrode and silver/silver chloride reference. Tetraethylammonium chloride in acetonitrile (0.1 M) was used as an electrolyte. Cyclic voltametry scans were done from +0 to 1.8 V at scan rate of 100 mV per second. […] Anandamide, a cannabinoid receptor ligand without a cannabinoid like structure, was used as a non-responsive control. Each experiment was repeated twice with essentially the same results.

cannabinoid receptor = conditions: cited from earlier work
NMDA receptor = conditions: cited from earlier work
[2] = system: neurons (AMPA/kainate receptor mediated toxicity); assay: AMPA and kainate receptor mediated toxicity in cultured neurons (LDH release); format: cell-based, Wistar rat; conditions: for attenuation of glutamate toxicity, comparison of antioxidants: 100 μM glutamate, equimolar 5 μM antioxidant (FIG. 5B)
Procedure: (§1) Primary neuronal cultures were prepared according to the method of Ventra et al. (J. Neurochem. 66:1752-1761, 1996). Fetuses were extracted by Cesarian section from a 17 day pregnant Wistar rat, and the feral brains were placed into phosphate buffered saline. The cortices were then dissected out, cut into small pieces and incubated with papain for nine minutes at 37° C. After this time the tissue was dissociated by passage through a fire polished Pasteur pipette, and the resultant cell suspension separated by centrifugation over a gradient consisting of 10 mg/ml bovine serum albumin and 10 mg/ml ovomucoid (a trypsin inhibitor) in Earls buffered salt solution. The pellet was then re-suspended in high glucose, phenol red free Dulbeco's modified Eagles medium containing 10% fetal bovine serum, 2 mM glutamine, 100 IU penicillin, and 100 μg/ml streptomycin (DMEM). Cells were counted, tested for vitality using the trypan blue exclusion test and seeded onto poly-D-lysine coated 24 multiwell plates. After 96 hours, 10 μM fluoro-deoxyuridine and 10 μM uridine were added to block glial cell growth.
Astrocyte conditioned DMEM was used throughout the AMPA/kainate toxicity procedure and following glutamate exposure in the NMDAr mediated toxicity protocol. Media was conditioned by 24 hour treatment over a confluent layer of type I astrocytes, prepared from two day old Wistar rat pups. Cortices were dissected, cut into small pieces, and enzymatically digested with 0.25% trypsin. Tissue was then dissociated by passage through a fire polished Pasteur pipette and the cell suspension plated into untreated 75 cm^2 T-flasks. After 24 hours the media was replaced and unattached cells removed. Once astrocytes achieved confluence, cells were divided into four flasks. Media for experiments was conditioned by a 24 hour exposure to these astrocytes, after which time it was frozen at −20° C. until use. Astrocyte cultures were used to condition DMEM for no longer than two months.
To examine AMPA and kainate receptor mediated toxicity, neurons were cultured for 7-13 days, then exposed to 100 μM glutamate and 50 μM cyclothiazide (used to prevent AMPA receptor desensitization). […] Specific AMPA and kainate receptor ligands were also used to separately examine the effects of cannabinoids on AMPA and kainate receptor mediated events. Fluorowillardiine (1.5 μM) was the AMPA agonist and 4-methyl glutamate (10 μM) was the kainate agonist used to investigate receptor mediated toxicity. When specifically examining kainate receptor activity, cyclothiazide was replaced with 0.15 mg/ml Concanavalin-A.

[3] = Iron catalyzed dihydrorhodamine oxidation (Fenton reaction); conditions: 50 μM dihydrorhodamine, 300 μM t-butyl hydroperoxide, 0.5 μM iron, 5 minutes
[4] = system: cultured neurons (NMDAr mediated toxicity); assay: NMDA mediated toxicity in cultured neurons (LDH release); format: cell-based, Wistar rat; conditions: 0.5 μg/ml, administered both during and post ischemia (FIG. 8)
Procedure: as §1
To examine NMDAr mediated toxicity, cultured neurons (cultured for 14-18 days) were exposed to 250 μM glutamate for 10 minutes in a magnesium free saline solution. […]

[5] = J. Pharmacol. Sci. 60:1433-1457 (1971); cited from earlier work

## CCCCCCC(C)(C)c1cc(O)c2c(c1)OC(C)(C)[C@@H]1CC=C(CO)CC21 (single isomer, unassigned; (-)) [HU-211]
[1]
  oxidation (electron donation) potential by cyclic voltametry: donated electrons at a similar potential as the antioxidant BHT
Cannabinoid receptor
  affinity to the cannabinoid receptors: low affinity
NMDA receptor
  activity at the NMDA receptor: retains NMDA receptor antagonist neuroprotective activity

## CCCCC/C=C\C/C=C\C/C=C\C/C=C\CCCC(=O)NCCO [Anandamide, arachidonyl ethanolamide]
[1]
  oxidation (electron donation) potential by cyclic voltametry: did not undergo oxidation

## Cc1cc(C(C)(C)C)c(O)c(C(C)(C)C)c1 [BHT]
[2]
  attenuation of glutamate toxicity, comparison of antioxidants: attenuated glutamate toxicity
[3]
  prevention of dihydrorhodamine oxidation: prevented dihydrorhodamine oxidation

## CCCCC/C=C\C[C@H](O)/C=C/C=C\C/C=C\CCCC(=O)O [Compound 12-HETE, 12-(s)-hydroxy-eicosatetraenoic acid]
[4]
  protection of cortical neurons from NMDAr toxicity: best protection

## CCCCCCC(C)(C)c1cc(O)c2c(c1)OC(C)(C)[C@@H]1CC=C(CO)C[C@@H]21 [HU-210, 1,1 dimethylheptyl (DMH) homolog of [3R,4R]-7-hydroxy-Δ^6THC]
Cannabinoid receptor; U.S. Pat. No. 5,434,295
  cannabinomimetic activity relative to natural Δ^9 THC: two orders of magnitude greater
[5]
  side effects in subjects: severe side effects, including fatigue, thirst, headache, and hypotension

## CC(=O)Oc1cc(O[C@H](C)CCCc2ccccc2)cc2c1[C@@H]1C[C@H](O)CC[C@H]1[C@H](C)N2 [levanantrodol]
[1]
  oxidation profile by cyclic voltametry: oxidation profiles similar to cannabidiol and THC

## CCCCCCC(C)(C)c1cc(O)c2c(c1)OC(C)(C)C1CCC(=O)CC21 (stereo not shown) [nabilone]
[1]
  oxidation profile by cyclic voltametry: oxidation profiles similar to cannabidiol and THC

## Cc1c(C)c2c(c(C)c1O)CC[C@@](C)(CCC[C@H](C)CCC[C@H](C)CCCC(C)C)O2 [α-tocopherol]
[2]
  attenuation of glutamate toxicity, comparison of antioxidants: attenuated glutamate toxicity

## tetrahydrocannabinol [THC]
[2]; 5 μM compound plus SR-141716A (FIG. 2B)
  neuroprotection in presence of cannabinoid receptor antagonist SR-141716A: Neither THC nor cannabidiol neuroprotection was affected
[2]; 100 μM Glu, 5 μM compound (FIG. 2A)
  neuroprotection in AMPA/kainate receptor toxicity assays: similarly protective
[1]
  oxidation (electron donation) potential by cyclic voltametry: donated electrons at a similar potential as the antioxidant BHT
[3]
  prevention of dihydrorhodamine oxidation: prevented dihydrorhodamine oxidation
